Reference: US20100286145A1, “ISOPHTHALAMIDE DERIVATIVES INHIBITING BETA-SECRETASE ACTIVITY” (CoMentis, Inc., priority 2007, published 2010)
Read-outs that look alike come from different tables or passages of the source.

What was measured:
[1] = target: memapsin 2 (Homo sapiens, UniProt P56817); experiment: Inhibition of memapsin 2 beta-secretase activity (fluorogenic substrate FS-2); type: biochemical; conditions: memapsin 2, pH 4, 37° C., fluorogenic substrate FS-2; read-out: M2Ki
Procedure, shortened: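 Kinetic fluorogenic assay: hydrolysis of the MCA/DNP-labelled APP Swedish-variant peptide FS-2 monitored as fluorescence rise at 37° C, pH 4, after 20 min enzyme–compound preincubation. Relative rates fitted with a tight-binding inhibitor model.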

[2] = test system: Aβ production in Chinese hamster ovary cells that over-express human APP695 with the London and Swedish mutations; experiment: Cellular Aβ IC50 determination (Aβ40 sandwich ELISA); type: cell-based; conditions: Cricetulus griseus
Procedure, shortened: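 Aβ40 in media quantified by sandwich ELISA, normalized to control incubations and fitted with a 4-parameter IC50 model. Compounds dosed to a final concentration near 4 μM (0.4% DMSO) on CHO cells expressing human APP695 (London and Swedish mutants) seeded at 10% confluency.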

[3] = cellular Aβ production, read-out: IC50

Sequence of memapsin 2 (P56817 46-501): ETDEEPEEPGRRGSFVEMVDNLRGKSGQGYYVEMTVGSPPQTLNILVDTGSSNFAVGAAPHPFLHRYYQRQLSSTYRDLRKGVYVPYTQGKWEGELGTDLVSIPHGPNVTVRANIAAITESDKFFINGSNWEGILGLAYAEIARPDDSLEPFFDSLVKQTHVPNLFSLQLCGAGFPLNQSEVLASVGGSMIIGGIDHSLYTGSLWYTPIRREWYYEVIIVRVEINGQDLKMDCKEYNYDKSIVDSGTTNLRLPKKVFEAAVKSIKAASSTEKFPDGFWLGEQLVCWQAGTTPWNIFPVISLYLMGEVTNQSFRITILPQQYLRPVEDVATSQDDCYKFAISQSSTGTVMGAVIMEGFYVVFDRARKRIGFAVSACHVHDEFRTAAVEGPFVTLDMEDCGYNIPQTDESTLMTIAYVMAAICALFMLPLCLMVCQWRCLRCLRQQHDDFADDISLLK

Compound	Ki [1] [nM]	IC50 [2, 3] [nM]	IC50 [2] [nM]
Cc1csc(CN(C)C(=O)c2cc(C(=O)N[C@@H](Cc3ccccc3)[C@H](O)CNCc3cncc(C(C)(F)F)c3)cc(N(C)C)c2)n1 [Compound 253, N1-((2S,3R)-4-((5-(1,1-difluoroethyl)pyridin-3-yl)methylamino)-3-hydroxy-1-phenylbutan-2-yl)-5-(dimethylamino)-N3-methyl-N3-((4-methylthiazol-2-yl)methyl)isophthalamide]	< 300	< 1000	–
Cc1csc(CN(C)C(=O)c2cc(C(=O)N[C@@H](Cc3ccccc3)[C@H](O)CNCc3cccc(C(F)(F)F)c3)cc(N(C)C)c2)n1 [Compound 254, 5-(dimethylamino)-N1-((2S,3R)-3-hydroxy-1-phenyl-4-(3-(trifluoromethyl)benzylamino)butan-2-yl)-N3-methyl-N3-((4-methylthiazol-2-yl)methyl)isophthalamide]	< 300	< 1000	–
COP(=O)(OC)Oc1cc(CNC[C@@H](O)[C@H](Cc2ccccc2)NC(=O)c2cccc(C(=O)N(C)Cc3nc(C)cs3)c2)cc(C(C)C)c1 [Compound 255, 3-(((2R,3S)-2-hydroxy-3-(3-(methyl((4-methylthiazol-2-yl)methyl)carbamoyl)benzamido)-4-phenylbutylamino)methyl)-5-isopropylphenyl dimethyl phosphate]	< 300	–	< 1000
Cc1nnc(CN(C)C(=O)c2cccc(C(=O)N[C@@H](Cc3ccccc3)[C@H](O)CNCc3cncc(C(C)C)c3)c2)o1 [Compound 256, N1-((2S,3R)-3-hydroxy-4-((5-isopropylpyridin-3-yl)methylamino)-1-phenylbutan-2-yl)-N3-methyl-N3-((5-methyl-1,3,4-oxadiazol-2-yl)methyl)isophthalamide]	> 501	1000 to 5000	–
Cc1csc(CN(C)C(=O)c2cc(C(=O)N[C@@H](Cc3ccccc3)[C@H](O)CNCc3cncc(C(C)C)c3)cc(-c3cccn3C)c2)n1 [Compound 257, N1-((2S,3R)-3-hydroxy-4-((5-isopropylpyridin-3-yl)methylamino)-1-phenylbutan-2-yl)-N3-methyl-5-(1-methyl-1H-pyrrol-2-yl)-N3-((4-methylthiazol-2-yl)methyl)isophthalamide]	< 300	< 1000	–
Cc1csc(CN(C)C(=O)c2cc(C(=O)N[C@@H](Cc3ccccc3)[C@H](O)CNCc3cncc(C(C)C)c3)cc(-c3cnn(C)c3)c2)n1 [Compound 258, N1-((2S,3R)-3-hydroxy-4-((5-isopropylpyridin-3-yl)methylamino)-1-phenylbutan-2-yl)-N3-methyl-5-(1-methyl-1H-pyrazol-4-yl)-N3-((4-methylthiazol-2-yl)methyl)isophthalamide]	< 300	< 1000	–
Cc1csc(CN(C)C(=O)c2cc(C(=O)N[C@@H](Cc3ccccc3)[C@H](O)CNCc3cncc(C(C)C)c3)cc(-c3ccc(F)nc3)c2)n1 [Compound 259, 5-(6-fluoropyridin-3-yl)-N1-((2S,3R)-3-hydroxy-4-((5-isopropylpyridin-3-yl)methylamino)-1-phenylbutan-2-yl)-N3-methyl-N3-((4-methylthiazol-2-yl)methyl)isophthalamide]	< 300	< 1000	–
COc1cccc([C@H](C)NC[C@@H](O)[C@H](Cc2ccccc2)NC(=O)c2cc(C(=O)N(C)Cc3nc(C)cs3)cc(N(C)C)c2)c1 [Compound 260, 5-(dimethylamino)-N1-((2S,3R)-3-hydroxy-4-((S)-1-(3-methoxyphenyl)ethylamino)-1-phenylbutan-2-yl)-N3-methyl-N3-((4-methylthiazol-2-yl)methyl)isophthalamide]	301 to 500	< 1000	–
Cc1csc(CN(C)C(=O)c2cccc(C(=O)N[C@@H](Cc3ccccc3)[C@H](O)CNCc3cc(Cl)ccc3F)c2)n1 [Compound 261, N1-((2S,3R)-4-(5-chloro-2-fluorobenzylamino)-3-hydroxy-1-phenylbutan-2-yl)-N3-methyl-N3-((4-methylthiazol-2-yl)methyl)isophthalamide]	< 300	< 1000	–
COc1cccc(CNC[C@@H](O)[C@H](Cc2ccccc2)NC(=O)c2cc(C(=O)N(C)Cc3nc(C)cs3)cc(-n3ccnc3)c2)c1 [Compound 262, N1-((2S,3R)-3-hydroxy-4-(3-methoxybenzylamino)-1-phenylbutan-2-yl)-5-(1H-imidazol-1-yl)-N3-methyl-N3-((4-methylthiazol-2-yl)methyl)isophthalamide]	< 300	< 1000	–
Cc1csc(CN(C)C(=O)c2cc(C(=O)N[C@@H](Cc3ccccc3)[C@H](O)CNCc3cncc(C(C)C)c3)cc(-c3ncc[nH]3)c2)n1 [Compound 263, N1-((2S,3R)-3-hydroxy-4-((5-isopropylpyridin-3-yl)methylamino)-1-phenylbutan-2-yl)-5-(1H-imidazol-2-yl)-N3-methyl-N3-((4-methylthiazol-2-yl)methyl)isophthalamide]	< 300	< 1000	–
CC(=O)c1cncc(CNC[C@@H](O)[C@H](Cc2ccccc2)NC(=O)c2cccc(C(=O)N(C)Cc3nc(C)cs3)c2)c1 [Compound 264, N1-((2S,3R)-4-((5-acetylpyridin-3-yl)methylamino)-3-hydroxy-1-phenylbutan-2-yl)-N3-methyl-N3-((4-methylthiazol-2-yl)methyl)isophthalamide]	< 300	< 1000	–
Cc1csc(CN(C)C(=O)c2cccc(C(=O)N[C@@H](Cc3ccccc3)[C@H](O)CNCc3cc(Br)cc(C(F)(F)F)c3)c2)n1 [Compound 265, N1-((2S,3R)-4-(3-bromo-5-(trifluoromethyl)benzylamino)-3-hydroxy-1-phenylbutan-2-yl)-N3-methyl-N3-((4-methylthiazol-2-yl)methyl)isophthalamide]	< 300	< 1000	–
Cc1csc(CN(C)C(=O)c2cccc(C(=O)N[C@@H](Cc3ccccc3)[C@H](O)CNCc3cc(C#N)cc(C(F)(F)F)c3)c2)n1 [Compound 266, N1-((2S,3R)-4-(3-cyano-5-(trifluoromethyl)benzylamino)-3-hydroxy-1-phenylbutan-2-yl)-N3-methyl-N3-((4-methylthiazol-2-yl)methyl)isophthalamide]	< 300	< 1000	–
Cc1csc(CN(C)C(=O)c2cccc(C(=O)N[C@@H](Cc3ccccc3)[C@H](O)CNCc3cccc(-c4ccccc4)c3)c2)n1 [Compound 267, N1-((2S,3R)-4-(biphenyl-3-ylmethylamino)-3-hydroxy-1-phenylbutan-2-yl)-N3-methyl-N3-((4-methylthiazol-2-yl)methyl)isophthalamide]	< 300	< 1000	–
Cc1csc(CN(C)C(=O)c2cc(C(=O)N[C@@H](Cc3ccccc3)[C@H](O)CNCc3cccc(C(C)(C)C)c3)cc(N(C)C)c2)n1 [Compound 268, N1-((2S,3R)-4-(3-tert-butylbenzylamino)-3-hydroxy-1-phenylbutan-2-yl)-5-(dimethylamino)-N3-methyl-N3-((4-methylthiazol-2-yl)methyl)isophthalamide]	< 300	< 1000	–
C=C(C)c1cc(CNC[C@@H](O)[C@H](Cc2ccccc2)NC(=O)c2cccc(C(=O)N(C)Cc3nc(C)cs3)c2)c[n+]([O-])c1 [Compound 269, 3-(((2R,3S)-2-hydroxy-3-(3-(methyl((4-methylthiazol-2-yl)methyl)carbamoyl)benzamido)-4-phenylbutylamino)methyl)-5-(prop-1-en-2-yl)pyridine 1-oxide]	< 300	< 1000	–
Cc1csc(CN(C)C(=O)c2cc(C(=O)N[C@@H](Cc3ccccc3)[C@H](O)CNCc3cncc(C(C)(C)F)c3)cc(-c3ccoc3)c2)n1 [Compound 270, N1-((2S,3R)-4-((5-(2-fluoropropan-2-yl)pyridin-3-yl)methylamino)-3-hydroxy-1-phenylbutan-2-yl)-5-(furan-3-yl)-N3-methyl-N3-((4-methylthiazol-2-yl)methyl)isophthalamide]	< 300	< 1000	–
Cc1csc(CN(C)C(=O)c2cc(C(=O)N[C@@H](Cc3ccccc3)[C@H](O)CNCc3cncc(C(C)C)c3)cc(-c3nccn3C)c2)n1 [Compound 271, N1-((2S,3R)-3-hydroxy-4-((5-isopropylpyridin-3-yl)methylamino)-1-phenylbutan-2-yl)-N3-methyl-5-(1-methyl-1H-imidazol-2-yl)-N3-((4-methylthiazol-2-yl)methyl)isophthalamide]	< 300	< 1000	–
Cc1csc(CN(C)C(=O)c2cc(C(=O)N[C@@H](Cc3ccccc3)[C@H](O)CNCc3cncc(C(C)C)c3)cc(-c3cccc(Cl)c3)c2)n1 [Compound 272, 3′-chloro-N3-((2S,3R)-3-hydroxy-4-((5-isopropylpyridin-3-yl)methylamino)-1-phenylbutan-2-yl)-N5-methyl-N5-((4-methylthiazol-2-yl)methyl)biphenyl-3,5-dicarboxamide]	< 300	< 1000	–
Cc1csc(CN(C)C(=O)c2cc(C(=O)N[C@@H](Cc3ccccc3)[C@H](O)CNCc3cccc(C(F)(F)F)c3)cc(C(C)C)c2)n1 [Compound 273, N1-((2S,3R)-3-hydroxy-1-phenyl-4-(3-(trifluoromethyl)benzylamino)butan-2-yl)-5-isopropyl-N3-methyl-N3-((4-methylthiazol-2-yl)methyl)isophthalamide]	< 300	< 1000	–
Cc1csc(CN(C)C(=O)c2cc(C(=O)N[C@@H](Cc3ccccc3)[C@H](O)CNCc3cncc(C(C)C)c3)cc(C(C)C)c2)n1 [Compound 274, N1-((2S,3R)-3-hydroxy-4-((5-isopropylpyridin-3-yl)methylamino)-1-phenylbutan-2-yl)-5-isopropyl-N3-methyl-N3-((4-methylthiazol-2-yl)methyl)isophthalamide]	< 300	< 1000	–
